Columns and labels:
αβ T processed cells [1] = assay: Cytokine production of αβ T processed cells (Bio-plex); assay type: cell-based, human; conditions: culture supernatant after 24 hours in RPMI 1640 + 10% FCS without IL-2; 4 healthy donor samples; vs cont
Procedure: The cytokine production ability of the αβ T processed cells prepared in Example 1 was determined by using Bio-plex “human cytokine G1 27 plex panel” (Bio-Rad Laboratories, Inc.) (FIG. 2A). Specifically, the αβ T processed cells prepared in Example 1 were replaced in a medium containing RPMI 1640 and 10% FCS in the absence of IL-2, and cultured. The culture supernatant after 24 hours from the start of the culture was recovered, and subjected to measurement.

αβ T processed cells [2] = assay: Perforin and granzyme B in culture supernatant after PMA/ionomycin stimulation (ELISA); assay type: cell-based, human; conditions: after PMA (5 ng/ml) and ionomycin (0.5 μg/ml) stimulation; 4 healthy donor samples; vs cont
Procedure: Furthermore, perforin and granzyme B in the culture supernatant after the degranulation due to the PMA (5 ng/ml) and ionomycin (0.5 μg/ml) stimulation were determined by using Human Perforin ELISA Kit and Human Granzyme B ELISA Kit (Abcam plc.), respectively (FIG. 2B).

[3] = test system: Daudi (Burkitt's lymphoma cell line); assay: In vitro cytotoxic activity against cultured cells (Calcein-AM, Terascan); assay type: cell-based, human; conditions: cancer cells:αβ T processed cells 1:25, 2 to 4 hours; vs conventional method
Procedure: (§1) The cytotoxic activity test by fluorescent staining was performed by using Terascan VPC2 (Minerva Tech K.K.). Cancer cell line K562 (leukemia cell line), Daudi (Burkitt's lymphoma cell line), and HOS (osteosarcoma cell line), and DLD1 (colon cancer cell line) were labeled for 30 minutes with 2.55 to 5 μg/mL of fluorescent dye Cellstein R-Calcein-AM solution (DOJINDO LABORATORIES). The labeled cancer cells and the αβ T processed cells were mixed at a ratio of 1:25, and the mixed cells were incubated for 2 to 4 hours in RPMI 1640 and 10% FBS (in the absence of IL-2). The cytotoxic activity was calculated by using changes in the fluorescence intensity of the cancer cells co-cultured with the αβ T processed cells as an index, assuming the fluorescence decay rate when treated with 1% NP40 (surfactant) as 100% (FIG. 2C).

Daudi cells = assay: Degranulation: CD107a exposure on CD8+ T cells in co-culture with cancer cells; assay type: cell-based, human; conditions: co-culture with Daudi cells 25:1, 6 hours
Description: (§2) In the αβ T processed cells treated with 2DG as described above, secretions of effector factors such as cytokines, perforin, and granzyme B were promoted, and the cytotoxic activity was enhanced. Since exposure of CD107a localized in an intracellular vesicle onto the cell surface serves as an index of degranulation for the release of an effector factor from a cytotoxic T cell or a NK cell, the exposure of CD107a onto the cell surface by co-culture with cancer cells having different cytotoxicity was detected.
(§3) In the presence of APC-labeled anti-CD107a antibodies (BioLegend, Inc.), the αβ T processed cells and cancer cells were mixed at a ratio of 25:1, and the mixed cells were cultured for 6 hours. After the washing of the cultured cells, the washed cells were stained with PE-labeled anti-CD8 antibodies (Beckman Coulter, Inc.). The cells thus stained were subjected to measurement by using a flow cytometer FACS CantoII (BD Biosciences), and the obtained data were analyzed by using Kaluza (Beckman Coulter, Inc.) software (FIG. 2D).

K562 cells = assay: as above; assay type: cell-based, human; conditions: co-culture with K562 cells 25:1, 6 hours
Description: as §2, §3

[4] = test system: sugar chains of αβ T processed cells; assay: LC-MS mass spectrometry analysis of sugar chains on cell surface; assay type: cell-based, human; conditions: summary of Table 1
Description: From the αβ T processed cells, sugar chains were purified and labeled by using BlotGlyco (Sumitomo Bakelite Co., Ltd.), and then the purified and labeled sugar chains were subjected to LC-MS mass spectrometry analysis (FIG. 5A).

galectin-3 = assay: Galectin-3 binding ability of αβ T processed cells (flow cytometry); assay type: cell-based; conditions: cells cultured with 0 to 4 mM of 2DG; recombinant galectin-3, 4° C., 30 minutes; vs cont
Procedure: The galectin-3 binding ability was detected with FITC-labeled anti-mouse IgG antibodies (Jackson ImmunoResearch Laboratories, Inc.). In this regard, as an experimental control of the galectin-3 binding, addition of 0.1 M of lactose (Sigma-Aldrich Co. LLC) for inhibiting the binding of galectin to sugar chains was performed. The measurement was performed by using a flow cytometer FACS CantoII (BD Biosciences), and the data were analyzed by using Kaluza (Beckman Coulter, Inc.) software.

cancer cells [5] = assay: Suppression of cytotoxic activity of 2DG-treated αβ T processed cells by D-mannose; assay type: cell-based, human; conditions: 2 mM D-mannose or L-mannose added to the culture with 2 mM 2DG
Procedure: as §1
Therefore, it was investigated whether or not the cytotoxic activity ability was suppressed by adding D-mannose to the processing of αβ T cells treated with 2DG.
In the preparation of Example 1, αβ T processed cells were prepared with the addition of 2 mM of D-mannose (Sigma-Aldrich Co. LLC) or L-mannose (Tokyo Chemical Industry Co., Ltd.), and the prepared αβ T processed cells were subjected to the measurement of cytotoxic activity by the method described in item 3.2.

αβ T processed cells [6] = assay: Intracellular perforin production in αβ T processed cells (flow cytometry, MFI); assay type: cell-based, human; conditions: 2 mM D-mannose or L-mannose added to the culture with 2 mM 2DG; for Intracellular granzyme B: data not shown
Procedure: Next, it was verified whether or not mannose inhibited the increase in the amount of intracellular perforin of the αβ T processed cells treated with 2DG. In the preparation of Example 1, αβ T processed cells were prepared with the addition of 2 mM of D-mannose (Sigma-Aldrich Co. LLC) or L-mannose (Tokyo Chemical Industry Co., Ltd.), the prepared cells were treated with IntraPrep Permeabilization Reagent (Beckman Coulter, Inc.), and the expression level of the intracellular perforin was determined by staining the cells with APC-labeled anti-perforin antibodies. The stained cells were subjected to measurement by using a flow cytometer FACS CantoII (BD Biosciences), and the data were analyzed by using Kaluza (Beckman Coulter, Inc.) software. The Mean Fluorescence Intensity (MFI) value is mean fluorescence intensity, and reflects the expression level.

IL-2 receptor = IL-2 receptor expression on αβ T processed cells (flow cytometry); assay type: cell-based, human; conditions: cells cultured with 2DG and D-mannose
Procedure: It is known that the intracellular perforin and granzyme B in effector cells are induced and expressed by the stimulation from IL-2 receptor on a T cell. Therefore, the expression of the IL-2 receptor was confirmed. […] The obtained resuspension was passed through a cell strainer to remove aggregates. The obtained cells were incubated for 1 hour on ice, together with PE/Cy5-labeled anti-IL-2R antibodies (BioLegend, Inc.), and FITC-labeled anti-CD3 antibodies (Beckman Coulter, Inc.), and after the washing of the incubated cells, the measurement was performed by using a flow cytometer FACS Cantoll (BD Biosciences). The data were analyzed by using Kaluza (Beckman Coulter, Inc.) software.

cancer cells [7] = assay: Cytotoxic activity of αβ T processed cells cultured with a glycolytic inhibitor; assay type: cell-based, human; conditions: cells prepared with oxamate (2 mM) or bromo pyruvate (10 μM); vs cells not treated with 2DG
Procedure: as §1
By using the method described in 3.2. of Example 3, the cytotoxic activity against each of cancer cells, by the αβ T processed cells treated with oxamate (2 mM) or bromo pyruvate (10 μM), which is a glycolytic inhibitor, was examined.

Question: How did the “Secretion of cytokines (IL-2, IFN-γ, TNFα)” value (αβ T processed cells [1]) turn out when `OCC1O[C@H](O)C[C@@H](O)[C@@H]1O` (mixture of isomers) [2DG, 2-deoxy-d-glucose] was run?
Answer: increased by 2DG treatment in 3 cases out of 4 cases

Question: And the “Secretion of granzyme B” value (αβ T processed cells [2])?
Answer: increased by 2DG treatment in 3 cases out of 4 cases

Question: And the Secretion of perforin (αβ T processed cells [2])?
Answer: increased by 2DG treatment in 3 cases out of 4 cases

Question: And the “Cytotoxic activity against Daudi” value [3]?
Answer: had not been increased

Question: What about the “Exposure of CD107a onto the cell surface (degranulation of CD8+ T cells)” value (Daudi cells) of the same compound?
Answer: not promoted

Question: And the “Exposure of CD107a onto the cell surface (degranulation of CD8+ T cells)” value (K562 cells)?
Answer: promoted

Question: What about the “Effect of 2DG treatment on N-glycans (sugar chain analysis)” value [4] of the same compound?
Answer: abnormal increase of the mature branched N-glycan in which deoxyhexose had been introduced

Question: What about the Galectin-3 binding ability (galectin-3) of the same compound?
Answer: reduced in a dose-dependent manner

Question: With `O=C[C@@H](O)[C@@H](O)[C@H](O)[C@H](O)CO` [D-mannose] as the compound, how does the “Cytotoxic activity of αβ T processed cells cultured with 2DG plus mannose” value (cancer cells [5]) read?
Answer: reduced the effect of 2DG

Question: What about the “Intracellular perforin expression level (MFI)” value (αβ T processed cells [6]) of the same compound?
Answer: reduced the effect of 2DG

Question: And the “Intracellular granzyme B” value (αβ T processed cells [6])?
Answer: the results were also similar

Question: What about the “Expression of the IL-2 receptor on a cell surface” value (IL-2 receptor) of the same compound?
Answer: suppressed

Question: For `O=C[C@H](O)[C@H](O)[C@@H](O)[C@@H](O)CO` [L-mannose], which “Cytotoxic activity of αβ T processed cells cultured with 2DG plus mannose” value (cancer cells [5]) is on record?
Answer: no influence on the cytotoxic activity of 2DG

Question: What about the “Intracellular perforin expression level (MFI)” value (αβ T processed cells [6]) of the same compound?
Answer: no influence

Question: What about the “Intracellular granzyme B” value (αβ T processed cells [6]) of the same compound?
Answer: the results were also similar

Question: Which “Cytotoxic activity against cancer cells” value (cancer cells [7]) does the source give for `NC(=O)C(=O)O` [oxamate] here?
Answer: no enhancement of the cytotoxic activity was observed

Reference: patent US20210002611A1, “IMPROVED ALPHA-BETA T PROCESSED CELL PRODUCTION METHOD” (OSAKA UNIVERSITY, priority 2018, published 2021)
